Reference: the supplement of paper PMC10307832

How the values were obtained:
Assay in all cases: relative viability (nuclei count vs DMSO), 5 days (fraction); higher = more cells survive
[1] = compound: CC1=CC=C(C=C1)C(=O)CN2C3=C(CCCC3)SC2=N [Pifithrin_alpha] + Cc1nc(Nc2ncc(C(=O)Nc3c(C)cccc3Cl)s2)cc(N2CCN(CCO)CC2)n1 [Dasatinib] (partner 0.075 µM)
Summary of the method: (§1)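 The day after seeding in 1536-well plates, lung cancer cell lines were treated by pin tool with a single drug, or with a fixed anchor-drug dose together with five library-drug doses (not always all listed) in √10 steps. After 5 days, a combined fix-and-stain solution (final 0.05% Triton X-100, 1% formaldehyde, 1 ug/ml Hoechst) was added. Nuclei counted on 4× images gave relative viability as treated counts over vehicle counts, reported as the median of duplicate plates.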

[2] = compound: CNC(=O)c1ccccc1Sc1ccc2c(/C=C/c3ccccn3)n[nH]c2c1 [Axitinib] + CS(=O)(=O)N1CCN(Cc2cc3nc(-c4cccc5[nH]ncc45)nc(N4CCOCC4)c3s2)CC1 [Pictilisib] (partner 1 µM)
Summary of the method: as §1

[3] = compound: Nc1nc(Nc2ccc3c(c2)CC[C@@H](N2CCCC2)CC3)nn1-c1cc2c(nn1)-c1ccccc1CCC2 [Bemcentinib] + CCNC(=O)c1noc(-c2cc(C(C)C)c(O)cc2O)c1-c1ccc(CN2CCOCC2)cc1 [Luminespib] (partner 0.01 µM)
Summary of the method: as §1

[4] = compound: Nc1nc(Nc2ccc3c(c2)CC[C@@H](N2CCCC2)CC3)nn1-c1cc2c(nn1)-c1ccccc1CCC2 [Bemcentinib] + CS(=O)(=O)CCNCc1ccc(-c2ccc3ncnc(Nc4ccc(OCc5cccc(F)c5)c(Cl)c4)c3c2)o1 [Lapatinib] (partner 2 µM)
Summary of the method: as §1

Cell Line	relative viability ([1]; first compound 1 µM)	relative viability ([1]; first compound 3.162 µM)	relative viability ([1]; first compound 10 µM)	relative viability ([1]; first compound 31.62 µM)	relative viability ([1]; first compound 100 µM)	relative viability ([2]; first compound 0.005 µM)	relative viability ([2]; first compound 0.01581 µM)	relative viability ([2]; first compound 0.05 µM)	relative viability ([2]; first compound 0.1581 µM)	relative viability ([2]; first compound 0.5 µM)	relative viability ([3]; first compound 0.04 µM)	relative viability ([3]; first compound 0.1265 µM)	relative viability ([3]; first compound 0.4 µM)	relative viability ([3]; first compound 1.265 µM)	relative viability ([3]; first compound 4 µM)	relative viability ([4]; first compound 0.04 µM)	relative viability ([4]; first compound 0.1265 µM)	relative viability ([4]; first compound 0.4 µM)	relative viability ([4]; first compound 1.265 µM)	relative viability ([4]; first compound 4 µM)
SK-MES-1	0.344	0.237	0.264	0.228	0.268	0.303	0.391	0.337	0.409	0.481	0.456	0.742	0.786	0.761	1.07	0.437	0.447	0.431	0.482	0.511
PC-3 [JPC-3]	0.971	0.928	0.671	0.933	0.917	0.729		0.672	0.715	0.853	0.722	0.695	0.712	0.69	0.674	0.455	0.495	0.421	0.425	0.471
NCI-H1666	0.808	0.81	0.682	0.588	0.542	0.414	0.459	0.433	0.512	0.584	1.05	1.07	0.993	0.956	0.955	0.668	0.813	0.599	0.649	0.606
IA-LM						0.442	0.307	0.331	0.396	0.4						0.661	0.814	1.13	0.832	0.775
HCC-78	0.259	0.354	0.336	0.417	0.455	0.207	0.257	0.238	0.229	0.218						0.113	0.443	0.693	0.281	0.0037
HCC-366	0.501	0.506	0.426		0.537	0.116	0.171	0.146	0.153	0.101						0.994	1.16	1.51	1.06	1.03
NCI-H520	0.299	0.204	0.18	0.243	0.263	0.326	0.247	0.288	0.272	0.327	0.248	0.191	0.252	0.23	0.303	0.855	0.943	1.08	0.768	1.05
NCI-H1355	0.502	0.409	0.386	0.414	0.445	0.41	0.514	0.606	0.432	0.308	0.771	0.823	0.737	0.673	0.758	0.908	1.1	1.04	1.13	1.07
SW 1573	0.616	0.513	0.602	0.36	0.577	0.507	0.462	0.576	0.444	0.463	0.203	0.185	0.212	0.152	0.215	0.976	1.03	1.18	0.961	1.09
COR-L 105	0.315	0.292	0.323	0.243	0.323	0.42	0.411	0.379	0.382	0.385	0.741	0.839	0.893	0.704	0.783	0.311	0.327	0.416	0.338	0.394
COR-L23	0.567	0.458	0.386		0.38	0.838	0.779	0.832	0.731	0.944	0.628	0.903	0.807	0.827	0.913	1.18	0.997	1.14	1.05	1.02
NCI-H322M	0.25	0.258	0.245	0.245	0.226	0.571	0.496	0.474	0.472	0.505	0.828	0.943	0.835	0.817	0.804	0.576	0.635	0.574	0.645	0.611
NCI-H2347	0.273	0.309	0.301	0.333	0.291	0.605	0.584	0.876	0.855	0.783	0.631	0.438	0.866	0.5	0.417	1.01	0.928	0.977	0.955	0.9
RERF-LC-KJ	0.721	0.633	0.737	0.411	0.521	0.583	0.654	0.544	0.603	0.51	1.45	1.23	1.24	1.17	1.1	0.848	1.02	1.15	0.919	0.885
NCI-H2228	0.516	0.471	0.421	0.425	0.363	0.472	0.391	0.416	0.486	0.622	0.128	0.152	0.159	0.111	0.134		1.39	1.18	1.08	1.18
A549						0.482	0.587	0.48	0.461	0.601						0.954	0.999	1.14	0.956	1.02
NCI-H358	0.165	0.169	0.187	0.181	0.16	0.369	0.309	0.33	0.336	0.369	0.319	0.335	0.303	0.247	0.369	0.496	0.415	0.373	0.531	0.464
NCI-H2342	0.255	0.316	0.317	0.31	0.31						0.689	0.762	0.679	0.83	0.794					
